Measured values reported in patent publication US20090317455A1, “REVERSE TARGETING LIPID VESICLE” (ASTELLAS PHARMA INC., priority 2006, published 2009).

Conditions: 10 mg/kg adriamycin, intravenous (tail vein) on Days 8, 10 and 12; compared with Vehicle; FIG. 1(A)
Procedure: The presence of weight loss as a side effect of adriamycin encapsulated in the liposome was assessed. […] Each of the drugs was intravenously (tail vein) administered to each mouse group on Days 8, 10 and 12 following the sensitization day (Day 0) (total of three doses). […] The 10 mg/kg (weight) adriamycin is a dose that gives medicinal benefits as a cancer chemotherapeutic agent.
Meanwhile, weight loss as a side effect was also assessed.
Each of the drugs was intravenously (tail vein) administered to each mouse group on Days 8, 10 and 12 following the sensitization day (Day 0) (total of three doses).

SMILES: COc1cccc2c1C(=O)c1c(O)c3c(c(O)c1C2=O)C[C@@](O)(C(=O)CO)C[C@@H]3O[C@H]1C[C@H](N)[C@H](O)[C@H](C)O1 [adriamycin]
- weight loss as a side effect: obvious weight loss
